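These data come from cells grown in 96-well plates and exposed to compound for 48 hours at five concentrations. Abbreviation: GI50, concentration required for 50% inhibition of growth. At the TGI there is no net growth.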
Tests used:
Test in all cases: NCI tumour cell line growth inhibition, 48 h
OVCAR-8 ovarian = system: OVCAR-8 ovarian
HOP-92 NSCLC = system: HOP-92 NSCLC
RPMI-8226 leukemia = system: RPMI-8226 leukemia
T-47D breast = system: T-47D breast
U251 CNS = system: U251 CNS
SK-MEL-2 melanoma = system: SK-MEL-2 melanoma
MALME-3M melanoma = system: MALME-3M melanoma
SW-620 colon = system: SW-620 colon
NCI/ADR-RES ovarian = system: NCI/ADR-RES ovarian
786-0 renal = system: 786-0 renal

## O=C(Nc1cc(F)c(F)cc1C(=O)O)c1ccc(-n2ccnc2)nn1
OVCAR-8 ovarian
  GI50: > 100 µM
  TGI: > 100 µM
HOP-92 NSCLC
  GI50: > 100 µM
  TGI: > 100 µM
RPMI-8226 leukemia
  GI50: > 100 µM
  TGI: > 100 µM
T-47D breast
  GI50: > 100 µM
  TGI: > 100 µM
U251 CNS
  GI50: > 100 µM
  TGI: > 100 µM
SK-MEL-2 melanoma
  GI50: > 100 µM
  TGI: > 100 µM
MALME-3M melanoma
  GI50: > 100 µM
  TGI: > 100 µM
SW-620 colon
  GI50: > 100 µM
  TGI: > 100 µM
NCI/ADR-RES ovarian
  GI50: > 100 µM
  TGI: > 100 µM
786-0 renal
  GI50: > 100 µM
  TGI: > 100 µM

## Fc1ccc(-c2nn3ccccc3c2-c2ccncc2)cc1
OVCAR-8 ovarian
  GI50: > 25 µM
  TGI: > 25 µM
HOP-92 NSCLC
  GI50: 4.53 µM
  TGI: > 25 µM
RPMI-8226 leukemia
  GI50: > 25 µM
  TGI: > 25 µM
T-47D breast
  GI50: > 21 µM
  TGI: > 25 µM
U251 CNS
  GI50: > 25 µM
  TGI: > 25 µM
SK-MEL-2 melanoma
  GI50: > 25 µM
  TGI: > 25 µM
MALME-3M melanoma
  GI50: > 25 µM
  TGI: > 25 µM
SW-620 colon
  GI50: > 25 µM
  TGI: > 25 µM
NCI/ADR-RES ovarian
  GI50: > 25 µM
  TGI: > 25 µM
786-0 renal
  GI50: > 25 µM
  TGI: > 25 µM

## c1ccc(Oc2ccc(Nc3ncc(-c4ccccc4)o3)cc2)cc1
OVCAR-8 ovarian
  GI50: > 25 µM
  TGI: > 25 µM
HOP-92 NSCLC
  GI50: 23.9 µM
  TGI: > 25 µM
RPMI-8226 leukemia
  GI50: > 25 µM
  TGI: > 25 µM
T-47D breast
  GI50: > 25 µM
  TGI: > 25 µM
U251 CNS
  GI50: > 25 µM
  TGI: > 25 µM
SK-MEL-2 melanoma
  GI50: > 25 µM
  TGI: > 25 µM
MALME-3M melanoma
  GI50: > 25 µM
  TGI: > 25 µM
SW-620 colon
  GI50: > 25 µM
  TGI: > 25 µM
NCI/ADR-RES ovarian
  GI50: > 25 µM
  TGI: > 25 µM
786-0 renal
  GI50: > 25 µM
  TGI: > 25 µM

## CS(=O)(=O)c1cccc(Nc2ncc3cc(-c4ccccc4Cl)ccc3n2)c1
OVCAR-8 ovarian
  GI50: 1.44 µM
  TGI: 32 µM
HOP-92 NSCLC
  GI50: 1.3 µM
  TGI: 7.56 µM
RPMI-8226 leukemia
  GI50: 1.47 µM
  TGI: 21.4 µM
T-47D breast
  GI50: 1.1 µM
  TGI: > 33.3 µM
U251 CNS
  GI50: 1.68 µM
  TGI: > 33.3 µM
SK-MEL-2 melanoma
  GI50: 0.92 µM
  TGI: 2.61 µM
MALME-3M melanoma
  GI50: 1.22 µM
  TGI: 9.84 µM
SW-620 colon
  GI50: 1.78 µM
  TGI: > 33.3 µM
NCI/ADR-RES ovarian
  GI50: 1.24 µM
  TGI: 17.7 µM
786-0 renal
  GI50: 1.38 µM
  TGI: > 33.3 µM

## O=C(Nc1cc(Cl)ccc1O)c1cccc(Nc2ccnc(C(F)(F)F)c2)c1
OVCAR-8 ovarian
  GI50: 3.77 µM
  TGI: 32.1 µM
HOP-92 NSCLC
  GI50: 2.27 µM
  TGI: 10.9 µM
RPMI-8226 leukemia
  GI50: 0.822 µM
  TGI: 4.04 µM
T-47D breast
  GI50: 1.02 µM
  TGI: 7.51 µM
U251 CNS
  GI50: 3.05 µM
  TGI: 83.4 µM
MALME-3M melanoma
  GI50: 2.22 µM
  TGI: 11.2 µM
SW-620 colon
  GI50: 4.32 µM
  TGI: 18.5 µM
NCI/ADR-RES ovarian
  GI50: 2.67 µM
  TGI: 14.1 µM
786-0 renal
  GI50: 3.56 µM
  TGI: 19.3 µM

## O=C(Nc1cc(Cl)cc(Cl)c1)c1cccc(NC2=C(Cl)C(=O)N(Cc3ccccc3)C2=O)c1
OVCAR-8 ovarian
  GI50: 41.7 µM
  TGI: > 100 µM
HOP-92 NSCLC
  GI50: 18.9 µM
  TGI: 85.7 µM
RPMI-8226 leukemia
  GI50: 2.31 µM
  TGI: > 100 µM
T-47D breast
  GI50: 66.5 µM
  TGI: > 100 µM
U251 CNS
  GI50: 15.6 µM
  TGI: > 100 µM
SK-MEL-2 melanoma
  GI50: 65.2 µM
  TGI: > 100 µM
MALME-3M melanoma
  GI50: 30.7 µM
  TGI: 97.4 µM
NCI/ADR-RES ovarian
  GI50: 30.3 µM
  TGI: > 100 µM
786-0 renal
  GI50: 26.8 µM
  TGI: > 100 µM

## CCCc1nc(Cl)c(Cl)c(Cl)n1
OVCAR-8 ovarian
  TGI: 51 µM
HOP-92 NSCLC
  TGI: > 61.7 µM
RPMI-8226 leukemia
  TGI: 3.94 µM
T-47D breast
  TGI: > 100 µM
U251 CNS
  TGI: 30.1 µM
MALME-3M melanoma
  TGI: > 51.4 µM
SW-620 colon
  TGI: > 52.2 µM
NCI/ADR-RES ovarian
  TGI: > 100 µM
786-0 renal
  TGI: > 31.6 µM

## COc1cc2c(c(OC)c1OC)-c1ccc(SC)c(=O)cc1[C@@H](NC(=O)C(F)(F)F)CC2
OVCAR-8 ovarian
  TGI: > 72.6 µM
HOP-92 NSCLC
  TGI: 0.105 µM
RPMI-8226 leukemia
  TGI: > 100 µM
T-47D breast
  TGI: > 100 µM
U251 CNS
  TGI: 56.3 µM
MALME-3M melanoma
  TGI: > 88.1 µM
SW-620 colon
  TGI: > 100 µM
NCI/ADR-RES ovarian
  TGI: 79.9 µM
786-0 renal
  TGI: 38.6 µM

## CC1=C(C(=O)Nc2ccc(F)c(Cl)c2)C(c2cccc(Oc3ccccc3)c2)NC(=S)N1 (stereo not drawn)
OVCAR-8 ovarian
  GI50: 11.3 µM
  TGI: 26.9 µM
HOP-92 NSCLC
  GI50: 21 µM
  TGI: > 50 µM
RPMI-8226 leukemia
  GI50: 16.8 µM
  TGI: > 50 µM
T-47D breast
  GI50: 40.4 µM
  TGI: > 50 µM
U251 CNS
  GI50: 9.64 µM
  TGI: 20.2 µM
SK-MEL-2 melanoma
  GI50: 9.72 µM
  TGI: 27.2 µM
SW-620 colon
  GI50: 16.2 µM
  TGI: 44.2 µM
NCI/ADR-RES ovarian
  GI50: 27.8 µM
  TGI: > 50 µM
786-0 renal
  GI50: 10.8 µM
  TGI: 21.5 µM

## CCCCOc1ccc(/C=N/Nc2cc(C)nc3ccc(Br)cc23)cc1
OVCAR-8 ovarian
  GI50: 1.77 µM
  TGI: 3.53 µM
HOP-92 NSCLC
  GI50: 1.54 µM
  TGI: 3.11 µM
RPMI-8226 leukemia
  GI50: 2.03 µM
  TGI: 4.58 µM
T-47D breast
  GI50: 1.69 µM
  TGI: 3.6 µM
U251 CNS
  GI50: 1.8 µM
  TGI: 3.27 µM
SK-MEL-2 melanoma
  GI50: 1.47 µM
  TGI: 2.86 µM
MALME-3M melanoma
  GI50: 1.91 µM
  TGI: 3.4 µM
NCI/ADR-RES ovarian
  GI50: 1.96 µM
  TGI: 3.85 µM
786-0 renal
  GI50: 1.83 µM
  TGI: 3.37 µM

## COc1ccc(-c2cn(-c3ccc(OC)c(OC)c3)c(=O)[nH]2)cc1
HOP-92 NSCLC
  GI50: > 100 µM
  TGI: > 100 µM
RPMI-8226 leukemia
  GI50: > 100 µM
  TGI: > 100 µM
T-47D breast
  GI50: 51.5 µM
  TGI: > 100 µM
U251 CNS
  GI50: > 100 µM
  TGI: > 100 µM
SK-MEL-2 melanoma
  GI50: > 100 µM
  TGI: > 100 µM
MALME-3M melanoma
  GI50: > 100 µM
  TGI: > 100 µM
SW-620 colon
  GI50: > 100 µM
  TGI: > 100 µM
NCI/ADR-RES ovarian
  GI50: 85.8 µM
  TGI: > 100 µM
786-0 renal
  GI50: > 100 µM
  TGI: > 100 µM
